Data published in patent US9089578B2, “Method of treating neuroendocrine tumors” (Niiki Pharma Acquisition Corp. 2, priority 2010, dated 2015).
pIC50: −log10 of the molar value.

Experiments:
[1] = test system: Stage IV Carcinoid tumor of the small bowel; assay: Prior chemo regimens of the carcinoid patient (history); assay type: in vivo, human; settings: December 2009 to March 2010
Text: (§1) In a human clinical trial conducted in the US, a person with Stage IV Carcinoid tumor of the small bowel (a neuroectodermal tumor or NET) was selected to undergo treatment of sodium trans-[tetrachlorobis(1H-indazole)ruthenate(III)]. They previously had 2 surgeries: an exploratory lap (diagnosis of neuroendocrine tumor) in June 2008, and a partial surgical resection of mass in October 2008. The second surgery was followed by chemoembolization of residual tumor masses for palliative treatment in October 2008 and in November 2008. Systemic chemotherapy with capecitibine was administered between July and August 2009. In August 2009, therapy was changed to octreotide (Sandostatin LAR), but this was discontinued in November 2009.

[2] = test system: Stage IV Carcinoid tumor of the small bowel; assay: Human clinical trial, carcinoid patient, tumor lesions by CT scan; assay type: in vivo; settings: for Size of tumor lesion by CT scan, Left periaortic LN: baseline 2.5; for Size of tumor lesion by CT scan, Portacaval LN: baseline 3.0; for Size of tumor lesion by CT scan, Stomach/mesenteric LN: baseline 3.3; for Size of tumor lesion by CT scan, Esophageal LN: baseline 3.8
Text: as §1
As the tumors were progressing, the patient started therapy on May 7, 2010 with intravenous injection of sodium trans-[tetrachlorobis(1H-indazole)ruthenate(III)] at 320 mg/m^2 based on body surface area (for a total dose of 630 mg per administration) once per week, on days 1, 8, and 15 of each 28-day cycle. At that time the patient had four metastatic sites originating from the primary tumor small intestine carcinoid. The four metastatic sites were in portacaval lymph node, left periaortic lymph node, stomach/mesenteric lymph node, and esophageal lymph node. CT scan of the tumors was done at the start of the treatment (baseline), and thereafter every two months.

[3] = test system: human thyroid carcinoma cell line MB1; assay: ATCC MTT Cell Proliferation Assay, MB1; assay type: cell-based; settings: MB1 cells, 72 hours post-treatment, read-out: IC50 (concentration that inhibits cell growth by 50%)
Description: (§2) To test the activities of sodium trans-[tetrachlorobis(1H-indazole)ruthenate(III)], ATCC's MTT Cell Proliferation Assay® was performed using human thyroid carcinoma cell line MB1 and Merkel cell carcinoma cell line MKL-1, both being neuroendocrine tumor (NET) cell lines. Stock cultures were allowed to grow to 70-80% confluence for this study. The anti-proliferative activity of sodium trans-[tetrachlorobis(1H-indazole)ruthenate(III)], against the indicated cell line was evaluated in vitro using the ATCC's MTT Cell Proliferation Assay (Catalog No. 30-1010K). […] The plates were left overnight at room temperature in the dark and was read on a plate reader using SoftMax® Pro (version 5.2, Molecular Devices).
(§3) The absorbance data was analyzed as follows: Absorbance values were converted to Percent of Control and plotted against test agent concentrations for IC50 calculations using SoftMax® Pro (version 5.2, Molecular Devices). […] Percent of Control values were calculated by dividing the absorbance values for each test well by the No Drug Control average (column 11 values; cells+vehicle control) and multiplying by 100. Plots of Compound Concentration versus Percent of Control were analyzed using the 4-parameter equation to obtain IC50 values and other parameters that describe the sigmoidal dose response curve. […]

[4] = test system: Merkel cell carcinoma cell line MKL-1; assay: ATCC MTT Cell Proliferation Assay, MKL-1; assay type: cell-based, human; settings: MKL-1 cells, 72 hours post-treatment, read-out: IC50 (concentration that inhibits cell growth by 50%)
Description: as §2, §3

[5] = test system: Stage IV gastrinoma of the stomach; assay: Human clinical trial, gastrinoma patient, tumor response; assay type: in vivo; settings: 420 mg/m^2 i.v. days 1, 8, 15 of 28-day cycle, 6 cycles
Text: (§4) In the same human clinical trial described above, a person with Stage IV gastrinoma of the stomach, (a neuroectodermal tumor or NET) diagnosed in December 2006 was enrolled. They had multiple attempts to achieve disease control with hepatic artery embolization in […], in January 2007, and in September 2007. Localized radiotherapy with Yttrium-90 instillation to the right lobe of the liver in March 2009 and the left lobe in May 2009 was attempted. Yet the tumor was not controlled.

[6] = test system: serum gastrin; assay: Serum gastrin level by chemiluminescence method in gastrinoma patient; assay type: in vivo, human; settings: reduced from 8291
Text: as §4
Serum gastrin levels were measured using chemiluminescence method during the treatment period.

[7] = End of 2nd Cycle (Jun. 24, 2010), 320 mg/m^2 i.v.
[8] = End of 4th Cycle (Aug. 19, 2010), 320 mg/m^2 i.v.
[9] = carcinoid patient, 320 mg/m^2 i.v. once per week

SMILES | outcome of prior therapy [1] | Size of tumor lesion by CT scan, Left periaortic LN [2, 7] | Size of tumor lesion by CT scan, Portacaval LN ([2]; End of 2nd Cycle (Jun. 24, 2010), 320 mg/m^2 i.v. days 1, 8, 15 of 28-day cycle) | Size of tumor lesion by CT scan, Stomach/mesenteric LN [2, 7] | Size of tumor lesion by CT scan, Esophageal LN [2, 7] | Size of tumor lesion by CT scan, Left periaortic LN [2, 8] | Size of tumor lesion by CT scan, Portacaval LN [2, 8] | Size of tumor lesion by CT scan, Stomach/mesenteric LN [2, 8] | Size of tumor lesion by CT scan, Esophageal LN [2, 8] | disease status on treatment ([2]; after 14 cycles, as of July 2011) | effect on the remaining three lesions [2, 9] | tumor regression in one lesion [2, 9] [%] | serious adverse events ([2]; carcinoid patient, 320 mg/m^2 i.v., 14 cycles) | pIC50 [3] | pIC50 [4] | best response [5] | serum gastrin level reduced during the course of therapy [6]
C[C@@H](Oc1cc(-c2cnn(C3CCNCC3)c2)cnc1N)c1c(Cl)ccc(F)c1Cl [crizotinib] | disease progression |  |  |  |  |  |  |  |  |  |  |  |  |  |  |  | 
[Cl][Ru-]([Cl])([Cl])[Cl].[Na+].c1ccc2[nH]ncc2c1.c1ccc2[nH]ncc2c1 [sodium trans-[tetrachlorobis(1H-indazole)ruthenate(III)]] |  | 2.5 | 2.9 | 3.1 | 3.0 | 2.5 | 2.9 | 3.1 | 2.0 | remains under control | stopped tumor growth | ~50 | No serious adverse events have been observed | 4.13 | 4.39 | stable disease | 6120
